Here are results for 42 compounds from patent US20160075653A1, “NEMATICIDAL N-(PHENYLCYCLOALKYL)CARBOXAMIDES AND N-(PHENYLCYCLOALKYL)THIOCARBOXAMIDES” (BAYER CROPSCIENCE AKTIENGESELLSCHAFT, priority 2013, published 2016).

A short description of this series: Measurement of log P values by HPLC on reversed phase columns (methods [a] pH 2.3, [b] pH 2.7, [c] pH 7.8). Format: physicochemical. The essentials: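 Determined per EEC Directive 79/831 Annex V.A8 by reversed-phase HPLC, 10-95% acetonitrile gradient: [a] pH 2.3, 0.1% phosphoric acid; [b] LC-MS, pH 2.7, 0.1% formic acid; [c] LC-MS, pH 7.8, 0.001 molar ammonium hydrogen carbonate. Calibrated with C3-C16 alkan-2-ones by retention-time interpolation.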

The mark [1] stands for this setting: HPLC reversed phase, method [b] (pH 2.7).
The mark [2] stands for this setting: HPLC on reversed phase column, method [b], pH 2.7.
[3] abbreviates: HPLC on reversed phase column, method [c], pH 7.8.

Consider `O=C(N[C@@H]1CC[C@@H]1c1ccc(F)cc1C(F)(F)F)c1ccc(Cl)cc1Cl` (relative stereo) [Example 506], for which the logP under setting [1] was 3.85^[b].
With `O=C(N[C@@H]1CC[C@H]1c1ccc(F)cc1C(F)(F)F)c1ccc(Cl)cc1` (relative stereo) [Example 507], the logP under setting [1] was 3.94^[b].
Same read-out and setting: then `O=C(N[C@@H]1CC[C@@H]1c1ccc(F)cc1C(F)(F)F)c1ccc(Cl)cc1` (relative stereo) [Example 508], with 3.62^[b]; and `O=C(N[C@@H]1CC[C@H]1c1ccc(F)cc1C(F)(F)F)c1ccc(Cl)cc1Cl` (relative stereo) [Example 510], with 4.08^[b]; and `O=C(N[C@@H]1CC[C@@H]1c1ccc(F)cc1C(F)(F)F)c1cccc(Cl)c1` (relative stereo) [Example 511], with 3.65^[b].
Still for that read-out and setting: the same measure for `O=C(N[C@@H]1CC[C@H]1c1ccc(F)cc1C(F)(F)F)c1ccccc1Cl` (relative stereo) [Example 512]: 3.56^[b].
Same read-out and setting: then `O=C(N[C@@H]1CC[C@H]1c1ccc(F)cc1C(F)(F)F)c1ccccc1[N+](=O)[O-]` (relative stereo) [Example 521], with 3.10^[b]; and `O=C(N[C@@H]1CC[C@H]1c1ccc(F)cc1C(F)(F)F)c1cccnc1Cl` (relative stereo) [Example 524], with 2.93^[b]; and `O=C(N[C@@H]1CC[C@H]1c1ccc(F)cc1C(F)(F)F)c1nccnc1Cl` (relative stereo) [Example 525], with 3.16^[b].
As for `O=C(N[C@@H]1CC[C@H]1c1ccc(F)cc1C(F)(F)F)c1cccnc1` (relative stereo) [Example 526], the logP under setting [1] is 2.41^[b].
Still for that read-out and setting: then `O=C(N[C@@H]1CC[C@@H]1c1cc(F)ccc1C(F)(F)F)c1ccc(Cl)cc1` (relative stereo) [Example 527], with 3.63^[b]; and `O=C(N[C@@H]1CC[C@@H]1c1cc(F)ccc1C(F)(F)F)c1ncc(C(F)(F)F)cc1Cl` (relative stereo) [Example 529], with 3.91^[b].
In the case of `Cc1nc(C(F)(F)F)c(C(=O)N[C@@H]2CC[C@H]2c2ccc(F)cc2C(F)(F)F)s1` (relative stereo) [Example 530], the logP under setting [1] is 3.60^[b].
The same measure, in the same setting: then `Cc1nc(C(F)(F)F)c(C(=O)N[C@@H]2CC[C@@H]2c2ccc(F)cc2C(F)(F)F)s1` (relative stereo) [Example 531], with 3.35^[b].
Same read-out and setting: then `O=C(N[C@@H]1CC[C@H]1c1ccccc1Cl)c1cccnc1Cl` (relative stereo) [Example 533], with 3.65^[b].
On to `O=C(N[C@@H]1CC[C@@H]1c1ccccc1Cl)c1cccnc1Cl` (relative stereo) [Example 534], for which the logP under setting [1] was 2.40^[b].
Same read-out and setting: the same measure for `O=C(N[C@@H]1CC[C@@H]1c1c(F)cccc1C(F)(F)F)c1ccc(Cl)cc1Cl` (relative stereo) [Example 535]: 3.93^[b]; for `O=C(N[C@@H]1CC[C@@H]1c1c(F)cccc1C(F)(F)F)c1ccc(Cl)cc1` (relative stereo) [Example 536]: 3.72^[b]; for `O=C(N[C@@H]1CC[C@H]1c1ccccc1Cl)c1cccnc1` (relative stereo) [Example 539]: 2.06^[b].
As to `O=C(N[C@@H]1CC[C@H]1c1ccccc1Cl)c1ccccc1[N+](=O)[O-]` (relative stereo) [Example 547], the logP under setting [1] was 2.92^[b].
Regarding `O=C(N[C@@H]1CC[C@@H]1c1c(F)cccc1C(F)(F)F)c1cccc(Cl)c1` (relative stereo) [Example 552], under setting [1], the logP is 4.26^[b].
Still for that read-out and setting: the same measure for `Cc1nc(C(F)(F)F)c(C(=O)N[C@@H]2CC[C@H]2c2ccccc2Cl)s1` (relative stereo) [Example 554]: 3.34^[b]; for `O=C(N[C@@H]1CC[C@@H]1c1cc(F)ccc1C(F)(F)F)c1ccc(Cl)cc1Cl` (relative stereo) [Example 557]: 3.85^[b]; for `O=C(N[C@@H]1CC[C@@H]1c1c(F)cccc1C(F)(F)F)c1cccnc1` (relative stereo) [Example 562]: 2.16^[b].
On to `O=C(N[C@@H]1C[C@@H]1c1ccc(Cl)cc1Cl)c1cccnc1C(F)(F)F` (relative stereo) [Example 565], for which the logP under setting [1] was 2.85^[b].
Take `Cc1nc(C(F)(F)F)c(C(=O)N[C@@H]2C[C@@H]2c2ccc(Cl)cc2Cl)s1` (relative stereo) [Example 568]: the logP under setting [1] is 3.29^[b].
Still for that read-out and setting: the same measure for `Cc1nc(C(F)(F)F)c(C(=O)N[C@@H]2CC[C@@H]2c2cc(F)ccc2C(F)(F)F)s1` (relative stereo) [Example 569]: 3.40^[b]; for `Cc1nc(C(F)(F)F)c(C(=O)N[C@@H]2CC[C@@H]2c2c(F)cccc2C(F)(F)F)s1` (relative stereo) [Example 573]: 3.47^[b]; for `O=C(N[C@@H]1C[C@@H]1c1ccc(Cl)cc1Cl)c1cccnc1` (relative stereo) [Example 583]: 2.06^[b].
Still for that read-out and setting: then `O=C(N[C@@H]1CC[C@H]1c1cccc(F)c1C(F)(F)F)c1ccccc1C(F)(F)F` (relative stereo) [Example 588], with 3.63^[b].
The same measure, in the same setting: then `O=C(N[C@@H]1CC[C@H]1c1cccc(F)c1C(F)(F)F)c1ccccc1I` (relative stereo) [Example 590], with 3.68^[b]; and `O=C(N[C@@H]1CC[C@H]1c1cccc(F)c1C(F)(F)F)c1ccccc1` (relative stereo) [Example 591], with 3.35^[b].
Take `O=C(N[C@@H]1CC[C@H]1c1cccc(F)c1C(F)(F)F)c1ccc(Cl)cc1Cl` (relative stereo) [Example 593]: the logP under setting [2] was 3.50^[b].
Same read-out and setting: the same measure for `O=C(N[C@@H]1CC[C@H]1c1cccc(F)c1C(F)(F)F)c1cccc(Cl)c1` (relative stereo) [Example 596]: 3.92^[b]; for `O=C(N[C@@H]1CC[C@@H]1c1cccc(F)c1C(F)(F)F)c1cccc(Cl)c1` (relative stereo) [Example 597]: 3.50^[b].
With `O=C(N[C@@H]1CC[C@H]1c1cccc(F)c1C(F)(F)F)c1ccc(Cl)cc1` (relative stereo) [Example 600], the logP under setting [2] was 3.88^[b].
In the case of `O=C(N[C@@H]1CC[C@H]1c1cccc(F)c1C(F)(F)F)c1ncc(C(F)(F)F)cc1Cl` (relative stereo) [Example 602], the logP under setting [2] is 4.10^[b].
On the same count and under the same terms, the same measure for `O=C(N[C@@H]1CC[C@@H]1c1cccc(F)c1C(F)(F)F)c1ncc(C(F)(F)F)cc1Cl` (relative stereo) [Example 603]: 3.81^[b].
On to `O=C(N[C@@H]1C[C@@H]1c1ccc(Cl)cc1Cl)c1cncnc1C(F)(F)F` (relative stereo) [Example 610], for which the logP is, setting by setting: under setting [2], 2.89^[b]; under setting [3], 2.87^[c];.
The matching figures for `Cn1ncc(C(=O)N[C@@H]2C[C@@H]2c2ccc(Cl)cc2Cl)c1C(F)F` (relative stereo) [Example 612]: 2.99^[b] and 2.94^[c];.
The matching figures for `O=C(N[C@@H]1C[C@@H]1c1ccc(Cl)cc1Cl)c1ccc(Cl)cc1Cl` (relative stereo) [Example 613]: 3.82^[b] and 3.76^[c];.
On to `CC1=C(C(=O)N[C@@H]2C[C@@H]2c2ccc(Cl)cc2Cl)S(=O)(=O)CCO1` (relative stereo) [Example 614], for which the logP was 2.40^[b] under setting [2] and 2.33^[c]; under setting [3].
